Test results taken from ChEMBL document CHEMBL3414490 (Eur J Med Chem, 2015).

How the values were obtained:
Prothrombin = Prothrombin (Homo sapiens, UniProt P00734); experiment: Inhibition of human thrombin using Ac-FVR-AMC as substrate incubated for 10 mins prior to substrate addition measured for 10 min by fluorescence assay
Rattus norvegicus [1] = experiment: Anticoagulant activity in Sprague-Dawley rat plasma assessed as activated partial […] time at 3 mg/ml administered for 4 days; assay type: functional
Rattus norvegicus [2] = experiment: Inhibition of arterial/venous thromboembolic weight in Sprague-Dawley rat at 3 mg/ml administered for 4 days relative to control; assay type: functional
Plasma = experiment: Anticoagulant activity in Sprague-Dawley rat plasma assessed as thrombin time at 3 mg/ml administered for 4 days; assay type: functional
Rattus norvegicus [3] = experiment: Inhibition of thrombin-induced platelet aggregation in Sprague-Dawley rat at 3 mg/ml administered for 4 days relative to control; assay type: functional
Rattus norvegicus [4] = experiment: Anticoagulant activity in Sprague-Dawley rat plasma assessed as fibrinogen level at 3 mg/ml administered for 4 days; assay type: functional
Rattus norvegicus [5] = experiment: Anticoagulant activity in Sprague-Dawley rat plasma assessed as prothrombin time at 3 mg/ml administered for 4 days; assay type: functional

SMILES | IC50 (Prothrombin) [nM] | further results
Cn1c(CNc2ccc(C(=N)N)cc2F)nc2cc(C(=O)N(CCC(=O)O)c3ccccc3F)ccc21 | 4.93 | 
Cn1c(CNc2ccc(C(=N)N)cc2F)nc2cc(C(=O)N(CCC(=O)O)c3ccc(F)cc3)ccc21 | 5.43 | 
CCCCCCOC(=O)/N=C(/N)c1ccc(NCc2nc3cc(C(=O)N(CCC(=O)OCC)c4ccccc4F)ccc3n2C)cc1 |  | APTT (Rattus norvegicus [1]): 24.33 s; inhibition (INH) (Rattus norvegicus [2]): 37%; TT (Plasma): 180 s; inhibition (INH) (Rattus norvegicus [3]): 10.4%; Activity (Rattus norvegicus [4]): 1.853 g/L; PT (Rattus norvegicus [5]): 11.82 s
Cc1ccc(N(CCC(=O)O)C(=O)c2ccc3c(c2)nc(CNc2ccc(C(=N)N)cc2F)n3C)nc1 | 24 | 
Cn1c(CNc2ccc(C(=N)N)cc2F)nc2cc(C(=O)N(CCC(=O)O)c3ccccc3)ccc21 | 5.86 | 
CCn1c(CNc2ccc(C(=N)N)cc2F)nc2cc(C(=O)N(CCC(=O)O)c3cccc(F)c3)ccc21 | 4.92 | 
CCn1c(CNc2ccc(C(=N)N)cc2F)nc2cc(C(=O)N(CCC(=O)O)c3ccc(C)cn3)ccc21 | 19.2 | 
CCn1c(CNc2ccc(C(=N)N)cc2F)nc2cc(C(=O)N(CCC(=O)O)c3ccccc3OC)ccc21 | 21.6 | 
CCn1c(CNc2ccc(C(=N)N)cc2F)nc2cc(C(=O)N(CCC(=O)O)c3ccccc3F)ccc21 | 3.71 | 
CCn1c(CNc2ccc(C(=N)N)cc2F)nc2cc(C(=O)N(CCC(=O)O)c3cccc(OC)c3)ccc21 | 8.4 | 
CCn1c(CNc2ccc(C(=N)N)cc2F)nc2cc(C(=O)N(CCC(=O)O)c3ccccn3)ccc21 | 3.39 | 
CCn1c(CNc2ccc(C(=N)N)cc2F)nc2cc(C(=O)N(CCC(=O)O)c3ccc(F)cc3)ccc21 | 4.9 | 
CCn1c(CNc2ccc(C(=N)N)cc2F)nc2cc(C(=O)N(CCC(=O)O)c3ccc(Cl)cc3)ccc21 | 13.6 | 
CCn1c(CNc2ccc(C(=N)N)cc2F)nc2cc(C(=O)N(CCC(=O)O)c3ccccc3C)ccc21 | 7.26 | 
COc1cccc(N(CCC(=O)O)C(=O)c2ccc3c(c2)nc(CNc2ccc(C(=N)N)cc2F)n3C)c1 | 4.84 | 
Cn1c(CNc2ccc(C(=N)N)cc2)nc2cc(C(=O)N(CCC(=O)O)c3ccccc3F)ccc21 | 3.23 | 
CCn1c(CNc2ccc(C(=N)N)cc2F)nc2cc(C(=O)N(CCC(=O)O)c3ccccc3)ccc21 | 5.63 | 
CCCCCCOC(=O)NC(=N)c1ccc(NCc2nc3cc(C(=O)N(CCC(=O)OCC)c4ccccn4)ccc3n2C)cc1 [DABIGATRAN ETEXILATE] |  | APTT (Rattus norvegicus [1]): 76.57 s; inhibition (INH) (Rattus norvegicus [2]): 76%; TT (Plasma): 180 s; inhibition (INH) (Rattus norvegicus [3]): 92.9%; Activity (Rattus norvegicus [4]): 1.561 g/L; PT (Rattus norvegicus [5]): 57.2 s
CCn1c(CNc2ccc(C(=N)N)cc2F)nc2cc(C(=O)N(CCC(=O)O)c3ccc(OC)cc3)ccc21 | 23.3 | 
CCCCCCOC(=O)/N=C(/N)c1ccc(NCc2nc3cc(C(=O)N(CCC(=O)OCC)c4ccccn4)ccc3n2C)c(F)c1 |  | APTT (Rattus norvegicus [1]): 25.43 s; inhibition (INH) (Rattus norvegicus [2]): 73%; TT (Plasma): 137.3 s; inhibition (INH) (Rattus norvegicus [3]): 53.8%; Activity (Rattus norvegicus [4]): 1.939 g/L; PT (Rattus norvegicus [5]): 12.28 s
Cc1ccccc1N(CCC(=O)O)C(=O)c1ccc2c(c1)nc(CNc1ccc(C(=N)N)cc1F)n2C | 6.13 | 
COc1ccc(N(CCC(=O)O)C(=O)c2ccc3c(c2)nc(CNc2ccc(C(=N)N)cc2F)n3C)cc1 | 16.3 | 
Cn1c(CNc2ccc(C(=N)N)cc2F)nc2cc(C(=O)N(CCC(=O)O)c3ccccn3)ccc21 | 3.49 | 
Cn1c(CNc2ccc(C(=N)N)cc2F)nc2cc(C(=O)N(CCC(=O)O)c3cccc(F)c3)ccc21 | 4.54 | 
